From US20240253988A1, “PROCESS FOR THE PRODUCTION OF HYDROGEN PEROXIDE” (ARKEMA FRANCE, priority 2021, published 2024)

Columns and labels:
[1] = Vapor pressure, ebulliometry ASTM-E1719; format: physicochemical
Procedure: Furthermore, the solvent of formula (I) may have a vapor pressure equal to or lower than 450 Pa, preferably equal to or lower than 400 Pa, and more preferably equal to or lower 350 Pa at 20° C. For example, the solvent of formula (I) may have a vapor pressure equal to or lower than 450 Pa, or equal to or lower than 400 Pa, or equal to or lower than 350 Pa, or equal to or lower than 300 Pa, or equal to or lower than 250 Pa, or equal to or lower than 200 Pa, or equal to or lower than 250 Pa, or equal to or lower than 200 Pa, or equal to or lower than 150 Pa, or equal to or lower than 100 Pa, at 20° C. Vapor pressure can be determined by ebulliometry according to ASTM-E1719.
Vapor pressure can be determined by ebulliometry according to ASTM-E1719.

[2] = Specific gravity, hydrometer ASTM-D891; format: physicochemical
From the text: The organic solvent according to the present invention may have a specific gravity equal to or lower than 0.95, and preferably equal to or lower than 0.94. According to preferred embodiments, the organic solvent according to the present invention may have a specific gravity from 0.89 to 0.95, and preferably from 0.90 to 0.94. Specific gravity can be determined by means of a hydrometer according to ASTM-D891.
Specific gravity can be determined by means of a hydrometer according to ASTMD891.

[3] = Flash point, closed-cup apparatus ASTM-D3278; format: physicochemical
Procedure: According to preferred embodiments, the organic solvent according to the present invention may have a flash point higher than 60° C., preferably higher than 62.5° C. and more preferably higher than 65° C. Flash point can be determined by closed-cup apparatus according to ASTM-D3278.
Flash point can be determined by closed-cup apparatus according to ASTM-D3278.

[4] = Water solubility, coulometric Karl Fischer titration ASTM-D6304; format: physicochemical
Procedure: According to some preferred embodiments, the organic solvent is not soluble (or essentially not soluble) in water, and preferably has a water solubility equal to or lower than 200 mg/kg, preferably equal to or lower than 190 mg/kg, and more preferably equal to or lower than […]. Water solubility can be determined by coulometric Karl Fischer titration according to ASTM-D6304.
Water solubility can be determined by coulometric Karl Fischer titration according to ASTM-D6304.

[5] = format: physicochemical
Procedure: The solubility of 2-ethylanthraquinone (2-EAQ) was measured in four different solvents. Solvents A to C are according to the invention, while solvent D is a comparative solvent: • Solvent A: 1-ethyl-4-methoxybenzene • Solvent B: 2,6-dimethylanisole • Solvent C: phenylpropylether • Solvent D: 1,3,5-trimethylbenzene
Solubilities were determined by equilibrating the 2-ethylanthraquinone with the solvent in a glass flask shaken in a carefully temperature controlled atmosphere. Analysis of the samples was done by liquid chromatography. Reference mixtures were prepared for calibration.
The solubility is measured at a temperature of 20° C.

Vapor Pressure [1] [Pa] | Specific gravity [2] | Flashpoint [3] | Water solubility [4] [mg/kg] | 2-EAQ solubility [5] | SMILES
60 | 0.946 | 64-65 °C | 141 | 229 g/kg of solvent | CCCOc1ccccc1 [Solvent C, phenylpropylether]
 |  |  |  | 210 g/kg of solvent | Cc1cc(C)cc(C)c1 [Solvent D, 1,3,5-trimethylbenzene, reference compound]

Continued, compound first:

SMILES | Vapor Pressure [1] [Pa] | Specific gravity [2] | Flashpoint [3] | Water solubility [4] [mg/kg] | 2-EAQ solubility [5]
COc1ccccc1 [Anisole (*), Anisole, reference compound] | 490 | 0.995 | 49-52 °C | 1728 | 
CCc1ccc(OC)cc1 [Solvent A, 1-ethyl-4-methoxybenzene] | 67 | 0.944 | 68-72 °C | 90 | 229 g/kg of solvent
COc1c(C)cccc1C [Solvent B, 2,6-dimethylanisole] | 124 | 0.943 | 61-67 °C | 114 | 226 g/kg of solvent
